# Assay results reported in ChEMBL document CHEMBL1126329, “Azasugar and glycal inhibitors of -L-fucosidase” (Bioorg Med Chem Lett, 1992).
# Molecular target: T1, Tissue alpha-L-fucosidase (Homo sapiens) (UniProt P04066)
# T1 sequence (whole entry): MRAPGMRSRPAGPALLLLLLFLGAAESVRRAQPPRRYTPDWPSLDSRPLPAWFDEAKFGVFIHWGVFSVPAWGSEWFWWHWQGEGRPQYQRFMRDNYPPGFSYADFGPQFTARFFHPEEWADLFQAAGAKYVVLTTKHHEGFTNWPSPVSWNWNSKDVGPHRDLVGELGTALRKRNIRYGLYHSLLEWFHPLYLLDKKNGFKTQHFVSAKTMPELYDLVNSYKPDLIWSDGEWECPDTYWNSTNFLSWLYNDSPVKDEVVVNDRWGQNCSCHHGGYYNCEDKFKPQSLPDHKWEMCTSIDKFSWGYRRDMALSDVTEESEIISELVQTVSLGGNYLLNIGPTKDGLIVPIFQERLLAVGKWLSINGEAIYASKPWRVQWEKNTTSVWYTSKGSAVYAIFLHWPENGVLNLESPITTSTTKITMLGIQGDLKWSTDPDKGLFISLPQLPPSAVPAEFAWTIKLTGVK
# Description: Intecept inhibition constant against Alpha-Fucosidase; Noncompetitive inhibition
row,Compound,Kii
1,Oc1ccccc1,112 mM

# Molecular target: T2, Tissue alpha-L-fucosidase (Homo sapiens, UniProt P04066)
# T2 sequence (P04066 whole entry): T1 sequence (whole entry)
# Assay: Inhibition constant against Alpha-Fucosidase
row,Compound,Ki
1,CC1=COC(c2ccccc2)C(C)C1O (stereo in doubt; 26),> 100 mM
2,C[C@@H]1OC=C[C@@H](O)[C@@H]1O,0.05 mM
3,CN1CC(O)C(O)C(O)C1CO (configuration not stated),5.3 mM
4,CC1=COC(c2ccccc2)C(C)C1O (stereo in doubt; 21),> 100 mM
5,CC(=O)C1C(O)C=COC1c1ccccc1 (configuration not stated),> 100 mM
6,C[C@@H]1N[C@@H](CO)[C@H](O)[C@@H]1O,0.004 mM
7,OCC1NC(CO)C(O)C1O (configuration not stated),0.91 mM
8,CC(=O)C1C(O)C=COC1C (configuration not stated),0.09 mM
9,OC1C=COC(c2ccccc2)C1OCc1ccccc1 (configuration not stated),> 100 mM
10,OC1C=COC(c2ccccc2)C1 (configuration not stated),> 100 mM

# Molecular target: T2, Tissue alpha-L-fucosidase
# Assay: Inhibition constant against Alpha-Fucosidase; Uncompetitive inhibition
row,Compound,Ki
1,C[C@H]1OC=C[C@@H](O)[C@H]1O (stereo in doubt; 24),23 mM
2,OC1C=COC(c2ccccc2)C1O (stereo in doubt; 23),83 mM
3,CC(=O)C1C(O)C=COC1C (configuration not stated),26 mM
4,OC1C=COC(c2ccccc2)C1O (stereo in doubt; 25),22 mM
5,C[C@H]1OC=C[C@@H](O)[C@H]1O (stereo in doubt; 19),35 mM

# Molecular target: T1, Tissue alpha-L-fucosidase (Homo sapiens)
# Remark: another data set of the same source
# Description: Slope inhibition constant against Alpha-Fucosidase; Uncompetitive inhibition
row,Compound,Kis
1,Oc1ccccc1,0.18 mM
